US11098058B2, “Bicyclic ketone compounds and methods of use thereof” (Genentech, Inc., priority 2017, dated 2021)

target: human RIP1 kinase domain (2-375) (Homo sapiens (Human), UniProt Q13546); conditions: RIP1 kinase inhibition, tight-binding apparent Ki; 50 nM enzyme, 50 μM ATP, 2 hours incubation
Sequence (Q13546 2-375): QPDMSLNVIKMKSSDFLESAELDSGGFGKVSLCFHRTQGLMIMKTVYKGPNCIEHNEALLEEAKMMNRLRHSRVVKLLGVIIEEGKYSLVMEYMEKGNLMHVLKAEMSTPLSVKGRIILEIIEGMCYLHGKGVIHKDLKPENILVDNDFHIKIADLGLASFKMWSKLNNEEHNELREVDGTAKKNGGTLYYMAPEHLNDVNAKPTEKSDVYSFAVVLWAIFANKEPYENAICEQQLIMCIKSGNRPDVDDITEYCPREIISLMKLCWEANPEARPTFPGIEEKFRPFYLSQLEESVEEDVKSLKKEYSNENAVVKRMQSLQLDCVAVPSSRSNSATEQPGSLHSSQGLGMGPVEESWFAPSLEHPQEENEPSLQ
Method: RIP1 Kinase Inhibition Assays (Biochemical Assay)
The ability of the receptor interacting protein kinase (RIPK1) to catalyze the hydrolysis of adenosine-5′-triphosphate (ATP) is monitored using the Transcreener ADP (adenosine-5′-diphosphate) assay (BellBrook Labs). Purified human RIP1 kinase domain (2-375) (50 nM) derived from a baculovirus-infected insect cell expression system is incubated with test compounds for 2 hours in 50 mM Hepes buffer (pH 7.5) containing 30 mM MgCl2, 1 mM dithiothreitol, 50 μM ATP, 0.002% Brij-35, and 0.5% dimethyl sulfoxide (DMSO). […] The tracer bound to the antibody is displaced by the ADP generated during the RIP1K reaction, which causes a decrease in fluorescence polarization that is measured by laser excitation at 633 nm with a FP microplate reader M1000. Fractional activity was plotted against test article concentration. Using Genedata Screener software (Genedata; Basel, Switzerland), the data were fit to the tight-binding apparent inhibition constant (Ki^app) Morrison equation [Williams, J. W. and Morrison, J. F. (1979) The kinetics of reversible tight-binding inhibition. […] The following equation was used to calculate fractional activity and Ki^app:
[formula] where [E]T and [I]T are the total concentrations of active enzyme and test article, respectively.

Row | Compound | Ki [nM]
1 | O=C(c1nc2n(n1)C(c1ccccc1)CC2)C1(Cn2cccn2)CC1 (stereo not shown) [Example 158, (5-phenyl-6,7-dihydro-5H-pyrrolo[1,2-b][1,2,4]triazol-2-yl)-[1-(pyrazol-1-ylmethyl)cyclopropyl]methanone] | 650
2 | Cn1cc(Cl)c([C@@H]2C[C@@H](F)c3nc(C(=O)C4CC4)nn32)n1 [Example 155, ((5S,7R)-5-(4-chloro-1-methyl-1H-pyrazol-3-yl)-7-fluoro-6,7-dihydro-5H-pyrrolo[1,2-b][1,2,4]triazol-2-yl)(cyclopropyl)methanone] | 970
3 | O=C(c1nc2n(n1)[C@H](c1cc(F)cc(F)c1F)C[C@@H]2F)C1CC1 (single isomer, unassigned) [Example 107] | 3.9
4 | O=C(c1nc2n(n1)[C@H](c1ccccc1)C[C@@H]2F)C1CC(F)(F)C1 (single isomer, unassigned) [Example 73] | 3.4
5 | O=C(c1nc2n(n1)[C@H](c1ccccc1)C[C@@H]2F)C1(c2ccccn2)CC1 (single isomer, unassigned) [Example 98] | 110
6 | O=C(c1nc2n(n1)[C@H](c1ccccc1)C[C@@H]2O)C1CC1 (single isomer, unassigned) [Example 87] | 13
7 | C[C@@H]1C[C@H]1C(=O)c1nc2n(n1)[C@H](c1ccccc1)C[C@@H]2F (single isomer, unassigned) [Example 91] | 3.4

Continued, values first:

Row | Ki [nM] | Compound
8 | 3.7 | O=C(c1cc2n(n1)[C@H](c1ccccc1)C[C@@H]2F)C1CC1 (single isomer, unassigned) [Example 108]
9 | 70 | O=C(c1nc2n(n1)[C@H](c1ccccc1)CCC2)C1CC1 (single isomer, unassigned) [Example 146]
10 | 3.6 | O=C(c1nc2n(n1)[C@H](c1cc(F)ccc1F)C[C@@H]2F)C1CC1 [Example 101, cyclopropyl-[(5S,7S)-5-(2,5-difluorophenyl)-7-fluoro-6,7-dihydro-5H-pyrrolo[1,2-b][1,2,4]triazol-2-yl]methanone]
